Source: paper PMC8455565 (Scientific Reports, 2021)

How the values were obtained:
BTK [1] = molecular target: T1, BTK (Homo sapiens, UniProt Q06187); assay: BTK occupancy in B cell line (Ramos cells, biotinylated probe, AlphaScreen); format: cell-based
Experimental: A total of 5 × 10^5 Ramos cells/well were plated in 96-well PDL-coated plates in DMEM with high glucose (GIBCO) supplemented with 10% FBS. Serial dilutions of LY3439943 in DMSO (final DMSO concentration, 0.4%) were incubated with the cells for 1 h at 37 °C. An equal volume of a covalent biotinylated BTK probe was added (final concentration, 167 nM), and the cells were incubated for another 1 h at 37 °C. The cells were lysed, and the amount of BTK was determined using the AlphaScreen IgG Detection Kit (Perkin Elmer 6760617R) and an anti-BTK antibody (Thermo Scientific Cat# MA5-14929) following the manufacturer’s instructions. The signal was measured at 615 nm with an Envision plate reader (Perkin Elmer).

B cells [2] = assay: Antigen-presentation assay (OVA-preactivated B cells with DO11.10 T cells); format: cell-based, mouse
Experimental: DO11.10 and BALB/C mice were purchased from The Jackson Laboratory and housed in accordance with the policies of the IACUC of Eli Lilly and Company. BALB/C mice were primed with 10 µg/ml ovalbumin (OVA) in Alhydrogel (InvivoGen, CA, USA) at a 2:1 ratio and boosted with 10 µg/ml OVA in PBS 2 weeks after priming. BALB/C mice were sacrificed 4 days after boosting, and B cells were purified from splenocytes using CD19 microbeads (Miltenyi Biotec) for positive selection. B cells were preincubated with HM71305/LSN3359180 for 1 h before the addition of OVA protein or OVA323-339 peptide, and T cells were positively isolated from DO11.10 transgenic mice using CD4 microbeads (Miltenyi Biotec). The supernatants were collected after 18 h, and IL-2 was measured by ELISA using mouse IL-2 DuoSet (DY402, R&D Systems). FACS analysis of CD69 (H1.2F3, Biolegend), CD86 (B7-2, BD Biosciences) and H2-IA/IE (M5/114.15.3, BD Biosciences) was performed using BD LSR Fortessa, and data were analyzed by FlowJo10 (FlowJo, LLC).

A431 = assay: Cell growth inhibition in EGFR overexpressed A431; format: cell-based; settings: Homo sapiens, A-431; cellular level; read-out: IC50, cell growth inhibition in EGFR overexppressed A431
BTK [3] = molecular target: T1, BTK; assay: hBTK Lanthascreen biochemical activity
BTK [4] = molecular target: T1, BTK; assay: Kinase selectivity biochemical assay (FRET), BTK; settings: Supplementary Table 1, biochemical assay
B cells [5] = assay: B cell inhibition in whole blood; format: cell-based
CTLL-2 = assay: IL-2 induced T cell proliferation in CTLL-2; format: cell-based; settings: Mus musculus, cellular level
JAK3 = molecular target: T2, JAK3 (Homo sapiens, UniProt P52333); assay: Kinase selectivity biochemical assay, JAK3; settings: biochemical assay
T2 sequence (P52333 1-1124): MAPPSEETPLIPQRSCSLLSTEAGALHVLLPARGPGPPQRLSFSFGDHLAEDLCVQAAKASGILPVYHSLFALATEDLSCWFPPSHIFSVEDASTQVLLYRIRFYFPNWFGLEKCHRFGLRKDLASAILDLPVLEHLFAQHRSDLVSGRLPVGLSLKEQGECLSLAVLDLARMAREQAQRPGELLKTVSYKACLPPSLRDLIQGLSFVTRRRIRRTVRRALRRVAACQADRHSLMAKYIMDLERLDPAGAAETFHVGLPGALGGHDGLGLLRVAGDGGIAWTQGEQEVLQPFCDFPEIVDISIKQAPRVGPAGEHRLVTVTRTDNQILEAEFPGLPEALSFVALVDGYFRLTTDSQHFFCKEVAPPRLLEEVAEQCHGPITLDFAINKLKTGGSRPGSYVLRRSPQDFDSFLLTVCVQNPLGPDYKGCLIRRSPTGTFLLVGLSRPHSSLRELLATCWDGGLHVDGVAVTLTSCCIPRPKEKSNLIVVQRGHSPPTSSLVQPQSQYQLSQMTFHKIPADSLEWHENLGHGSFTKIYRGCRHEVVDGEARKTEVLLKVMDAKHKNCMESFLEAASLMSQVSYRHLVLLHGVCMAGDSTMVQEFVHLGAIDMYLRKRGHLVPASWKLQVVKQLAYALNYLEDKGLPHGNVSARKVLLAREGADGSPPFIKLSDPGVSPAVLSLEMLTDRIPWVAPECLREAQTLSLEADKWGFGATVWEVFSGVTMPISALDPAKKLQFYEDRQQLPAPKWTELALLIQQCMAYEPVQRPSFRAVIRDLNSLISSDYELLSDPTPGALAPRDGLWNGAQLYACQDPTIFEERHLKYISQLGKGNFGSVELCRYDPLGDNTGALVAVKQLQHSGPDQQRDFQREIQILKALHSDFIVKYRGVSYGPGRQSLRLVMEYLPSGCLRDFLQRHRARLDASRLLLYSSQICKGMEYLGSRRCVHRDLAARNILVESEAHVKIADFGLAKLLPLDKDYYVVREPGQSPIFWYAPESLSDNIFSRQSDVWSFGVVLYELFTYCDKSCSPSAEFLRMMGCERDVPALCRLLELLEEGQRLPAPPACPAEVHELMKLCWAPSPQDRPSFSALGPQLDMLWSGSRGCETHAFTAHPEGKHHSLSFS

BTK [6] = molecular target: T1, BTK; assay: BTK occupancy in whole blood ex vivo; format: cell-based; design: from tissue; host or cells: whole blood

T1 sequence (Q06187 whole entry): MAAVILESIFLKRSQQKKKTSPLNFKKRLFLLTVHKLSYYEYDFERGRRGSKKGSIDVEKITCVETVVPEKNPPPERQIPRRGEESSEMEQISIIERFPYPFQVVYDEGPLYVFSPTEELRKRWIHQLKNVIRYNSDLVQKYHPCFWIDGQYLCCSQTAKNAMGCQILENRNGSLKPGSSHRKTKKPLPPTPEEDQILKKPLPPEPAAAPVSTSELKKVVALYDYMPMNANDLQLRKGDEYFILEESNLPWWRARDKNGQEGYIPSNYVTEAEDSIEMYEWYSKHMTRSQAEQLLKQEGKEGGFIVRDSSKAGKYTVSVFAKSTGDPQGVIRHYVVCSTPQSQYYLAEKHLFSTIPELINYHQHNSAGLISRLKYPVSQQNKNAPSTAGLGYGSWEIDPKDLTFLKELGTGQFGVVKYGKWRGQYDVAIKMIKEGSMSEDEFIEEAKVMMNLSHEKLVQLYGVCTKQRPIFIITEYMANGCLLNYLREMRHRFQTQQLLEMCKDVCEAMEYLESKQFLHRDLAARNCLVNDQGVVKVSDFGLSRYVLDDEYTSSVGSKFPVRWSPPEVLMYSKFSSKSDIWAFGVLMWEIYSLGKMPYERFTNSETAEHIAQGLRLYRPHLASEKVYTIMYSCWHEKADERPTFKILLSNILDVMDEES

C=CC(=O)Nc1cccc(Oc2nc(Nc3ccc(N4CCN(C(C)C)CC4)cc3)nc3ccoc23)c1 [HM71035]
IC50 (BTK [1]): 6 nM
B cell-dependent T cell activation (IL-2 secretion, CD69 expression on T cells) (B cells [2]; B cells preincubated 1 h with compound, coculture with DO11.10 T cells): reduced in a dose-dependent fashion
IC50 (B cells [2]; Mus musculus, B-cell, in vivo preactivated B cells, roughly, read-out: IC50 effect on the B cells (CD80 and CD86 expression)): ~100 nM
IC50 (A431): > 500 nM
IC50 (BTK [3]): 3 nM
IC50 (BTK [4]): 3 nM
IC50 (B cells [5]): 440 nM
IC50 (CTLL-2): > 500 nM
IC50 (JAK3): 39 nM
IC50 (BTK [6]): 170 nM
